Experiment [1] relates to human antibody binding to extracellular polysaccharides of Penicillium and Aspergillus species. Kind of experiment: competition ELISA: inhibition of human antibody binding of 40 serum samples to EPS. To be noted: 40 human serum samples. On the procedure: A total of 40 serum samples were collected arbitrarily from healthy Dutch males and females aged between 15 and 65.
(§1) The inhibition characteristics were determined using a "competition" enzyme-linked immunosorbent assay (ELISA). Microtiter polyvinyl wells (Cooke, Dynatech) were coated with polysaccharides which had been isolated from culture fluids of moulds. For this purpose 0.1 ml of 0.07 M phosphate buffer, pH 7.2, with 0.15 M NaCl (PBS) and 1 μg polysaccharide were added to each well of the plate. After incubating for one night with shaking at 20° C., the wells were washed under a continuous stream of tap water with 0.05% Tween 20 for 0.5 min. A prepared mixture of 50 μl antibodies (rabbit IgG and human sera respectively), diluted in PBS, which contained 0.05% Tween 20 and 2% bovine serum albumin, and 50 μl inhibitor, which was diluted in the same buffer, were then added. After an incubation time of 60 minutes the wells were washed in the manner described above. The quantity of antibodies which was absorbed on the polysaccharides was determined with sheep-anti-rabbit-globulins and with sheep-anti-human-globulins respectively which were conjugated to peroxidase. For this purpose 0.1 ml conjugate diluted in PBS, which contained 0.05% Tween 20, was added to each well (dilution was checked using the checker board titration). The incubation and the washing were carried out in the manner described for the prepared test sample (mixture of serum or IgG and inhibitor).
(§2) The enzyme reaction was determined spectrophotometrically at 449 nm after adding a solution of 5-amino-salicylic acid and H2 O2 (0.1 ml 0.07% 5-amino-salicylic acid, pH 6.0, and 0.005% H2 O2 were added to each well) and an incubation for 30 minutes at 20° C.
The human serum and rabbit IgG solutions were diluted to concentrations at which the extinction coefficients without inhibitor start to decrease (extinction value approximately 0.70). Methyl-β-D-galactofuranoside and the dimers to heptamers inclusive of (1-5)-coupled β-D-galactofuranosides were used as inhibitors. The inhibition effect of dimers of (1-2)-, (1-3)- and (1-6)-coupled β-D-galactofuranoside was also investigated (see Table B). The percentage inhibition was calculated as 100--100 (extinction with inhibitor - extinction without inhibitor).
The inhibition of the human antibody binding to EPS of moulds was tested with 40 serum samples using the tetramer of (1-5)-coupled β-D-galactofuranoside as inhibitor. The EPS in these tests originated from P. digitatum, P. cyclopium, P. dierckxii, P. funiculosum, A. niger, A. fumigatus and A. repens. Antibodies against P. funiculosum were not detectable in any serum sample, while antibodies against the other EPS derivatives were present in all 40 serum samples. The titers (reciprocal value of the dilution which gives the extinction equal to the mean value for 10 blank samples+2.81×standard deviation of these blank samples; confidence limit 99%), were in a range from 400 to 6,000. There was a significant correlation 99%) between the presence of antibodies in each serum and against the various Penicillium/Aspergillus EPS derivatives which were tested (Spearman Rank correlation test).

A further experiment concerns rabbit IgG anti-EPS. Kind of experiment: specific inhibition test in sandwich ELISA on walnut and herb samples. Format: binding. The settings on record: 50 μg/ml inhibitor. How it is done:
A sandwich ELISA was used to ascertain whether (1-5)-coupled β-D-galactofuranosyl radicals were capable of binding antibodies. 0.1 ml portions containing 10 μg/ml rabbit IgG anti-EPS, which was diluted in PBS, were introduced into wells of polyvinyl plates and incubated overnight with shaking at 20° C. After washing in the manner described above, 0.1 ml samples containing β-(1-5)coupled galactofuranosyl radicals in PBS with 0.05% Tween 20 and 2% bovine serum albumin were added. After an incubation time of 60 minutes the plates were washed. 0.1 ml of an optimum dilution (=dilution was checked using the checker board titration) of rabbit IgG anti-EPS, conjugated with peroxidase, diluted in PBS with 0.05% Tween 20 was then added to each well. The incubation and the washing were carried out in the manner described above. The enzyme reaction was also determined in the manner described above.
In addition an immunological determination, described under (F), of Penicillium and Aspergillus species was carried out on 16 samples of walnuts and 9 samples of herbs, use being made of rabbit IgG and, respectively 50 μg/ml of a framer of (1-5)-coupled β-D-galactofuranoside per test sample. The EPS antigen possibly present in the abovementioned products was extracted by boiling with a phosphate-buffered physiological saline solution.

Experiment [2] deals with rabbit anti-EPS antibodies. The experiment in a line: competition ELISA: inhibition of binding of rabbit antibodies to EPS (FIG. 3). To be noted: binding of antibodies evoked in rabbits to EPS; for 50 per cent inhibition concentration: FIG. 3, EPS species not stated. On the procedure:
as §1, §2
The human serum and rabbit IgG solutions were diluted to concentrations at which the extinction coefficients without inhibitor start to decrease (extinction value approximately 0.70). Methyl-β-D-galactofuranoside and the dimers to heptamers inclusive of (1-5)-coupled β-D-galactofuranosides were used as inhibitors. […] The percentage inhibition was calculated as 100--100 (extinction with inhibitor - extinction without inhibitor).

Two compounds from US5149632A, “Method for the detection of molds in foodstuffs and human and animal body fluids” (De Staat Der Nedelranden Vertengwoordigd Door De Minister …, priority 1988, dated 1992) can be followed below.

As for “tetramer of (1-5)-coupled β-D-galactofuranoside”, the “Number of samples with an inhibition of 25%” value in experiment [1] (inhibitor 4 μg/ml) stood at 15; in experiment [1] (inhibitor 20 μg/ml) it was 34; in experiment [1] (inhibitor 100 μg/ml) it was 36; in experiment [1] (inhibitor 500 μg/ml), 37. Further, the “Number of samples with an inhibition of 50%” value was determined as 0 in experiment [1] (inhibitor 4 μg/ml), 12 in experiment [1] (inhibitor 20 μg/ml), 32 in experiment [1] (inhibitor 100 μg/ml) and 36 in experiment [1] (inhibitor 500 μg/ml). The “Number of samples with an inhibition of 90%” value in experiment [1] (inhibitor 4 μg/ml) turned out to be 0; in experiment [1] (inhibitor 20 μg/ml) it was 0; in experiment [1] (inhibitor 100 μg/ml), 0; in experiment [1] (inhibitor 500 μg/ml), 15. In addition, the “Number of samples with inhibition >50%” value in the experiment with rabbit IgG anti-EPS (Herbs, 4 samples, ELISA titer >50,000) is 4; with rabbit IgG anti-EPS (Herbs, 5 samples, ELISA titer 5000-50,000), 5; in the experiment on rabbit IgG anti-EPS (Nuts, 3 samples, ELISA titer 100-500) it was 3; in the experiment on rabbit IgG anti-EPS (Nuts, 4 samples, ELISA titer 5000-50,000) it was 4; with rabbit IgG anti-EPS (Nuts, 9 samples, ELISA titer 500-5000) it was 7. In experiment [2], the “concentration giving complete inhibition (100%)” value stood at 100 µg/mL. Moreover, in experiment [2], the “50 per cent inhibition concentration” value amounted to 30 µg/mL.
For `CO[C@@H]1O[C@@H]([C@H](O)CO)[C@H](O)[C@H]1O` [monomer, Methyl β-D-galactofuranoside], in experiment [2], the “50 per cent inhibition concentration” value is on record as “approximately 10,000 μg/ml”.
